A short description of experiment [1]: Inhibition of alpha-glucosidase (unknown origin) using p-NPG as substrate by spectrophotometric analysis. On the set-up: species or system Homo sapiens.
The species entered for another experiment is Homo sapiens. Nature of the experiment: Mixed inhibition of alpha-glucosidase (unknown origin) using p-NPG as substrate by Lineweaver-Burk plot analysis.
Experiment [2] can be described thus: Inhibition of alpha-glucosidase (unknown origin) using p-NPG as substrate by Dixon plot analysis. On the set-up: species or system Homo sapiens.

We go through 12 compounds from ChEMBL document CHEMBL4627309, “Tetra-aryl cyclobutane and stilbenes from the rhizomes of Rheum undulatum and their α-glucosidase inhibitory activity: Biological evaluation, kinetic analysis, and molecular docking simulation” (Bioorg Med Chem Lett, 2020).

The source made the active and inactive calls. The calls are words filed in the database; no cut-off is given here. Where only a bound is given, the exact number is not on record here.

`COc1ccc(/C=C\c2cc(O)cc(O[C@@H]3O[C@H](COC(=O)/C=C/c4ccc(O)cc4)[C@@H](O)[C@H](O)[C@H]3O)c2)cc1`: the IC50 in experiment [1] is > 100 µM.
`COc1ccc(/C=C/c2cc(O)cc(O)c2)cc1O` displayed an IC50 in experiment [1] of 15.4 µM. Also, the inhibition entry in the experiment listed under Homo sapiens was “Active”. For the same compound, in experiment [2], the Ki was found to be 15.3 µM.
As for `COc1ccc(/C=C/c2cc(O)cc(O[C@@H]3O[C@H](COC(=O)c4ccc(O)cc4)[C@@H](O)[C@H](O)[C@H]3O)c2)cc1`, the IC50 in experiment [1] was > 100 µM.
In the case of `COc1ccc([C@@H]2[C@@H](c3cc(O)cc(O)c3)[C@@H](c3cc(O)cc(O)c3)[C@@H]2c2ccc(OC)c(O)c2)cc1O`, in experiment [1], the IC50 was 80.1 µM.
As to `OC[C@H]1O[C@@H](Oc2cc(O)cc(/C=C/c3ccc(O)cc3)c2)[C@H](O)[C@@H](O)[C@@H]1O` [PICEID], the IC50 in experiment [1] is > 100 µM.
On the same count and under the same terms, the result for `COc1ccc(/C=C/c2cc(O)cc(O[C@@H]3O[C@H](COC(C)=O)[C@@H](O)[C@H](O)[C@H]3O)c2)cc1O` reads > 100 µM; that for `COc1cc(O[C@@H]2O[C@H](CO)[C@@H](O)[C@H](O)[C@H]2O)c2c(c1)C(=O)C(C)=C(C(C)=O)C2=O`, > 100 µM.
Same read-out and setting: for `Cc1cc(O[C@@H]2O[C@H](CO)[C@@H](O)[C@H](O)[C@H]2O)c2c(c1)C(=O)c1cccc(O)c1C2=O` [CHRYSOPHANEIN] the value was > 100 µM.
As to `COc1cc(O[C@@H]2O[C@H](CO)[C@@H](O)[C@H](O)[C@H]2O)c2c(O)c(C(C)=O)c(C)cc2c1`, the IC50 in experiment [1] was > 100 µM.
On the same count and under the same terms, for `COc1ccc(/C=C/c2cc(O)cc(O[C@@H]3O[C@H](CO)[C@@H](O)[C@H](O)[C@H]3O)c2)cc1O` [RHAPONTIN] the value was > 100 µM.
Same read-out and setting: the result for `C[C@H]1O[C@H](O[C@H]2[C@H](O)[C@@H](O)[C@@H](O[C@H]3[C@H](O)[C@@H](O)C(O)O[C@@H]3CO)O[C@@H]2CO)[C@H](O)[C@@H](O)[C@@H]1N[C@H]1C=C(CO)[C@@H](O)[C@H](O)[C@H]1O` (some centres undefined) [ACARBOSE] reads 127 µM.
Same read-out and setting: the result for `Cc1cc(O)c2c(c1)C(=O)c1cccc(O[C@@H]3O[C@H](CO)[C@@H](O)[C@H](O)[C@H]3O)c1C2=O` [PULMATIN] reads > 100 µM.
